Laboratory results as given in US8765710B2, “2′,4′-substituted nucleosides as antiviral agents” (Gilead Pharmasset LLC, priority 2007, dated 2014).

Tests used:
HCV S282T cells = test: HCV inhibition in S282T cells; assay type: cell-based; conditions: Hepatitis C virus, read-out: HCV Inhibition S282T Cells EC90
[1] = test system: HIV (NL43 wild type virus) in P4 CCR5-luc cells; test: HIV titration to determine EC50 on P4 CCR5-luc cells; assay type: cell-based; conditions: Human immunodeficiency virus 1, NL43, read-out: HIV Inhibition P4 Cells EC50
Description: HIV-Titration of PSI Activity to Determine EC50 on P4 CCR-luc Cells.
P4 CCR5-luc cells are plated at 10,000 cells per well (100 μl) in 96 well Opaque Assay plates and incubated overnight at 37° C. The next day, the media is aspirated from the plates and replaced by 100 ul of compound freshly diluted into appropriate media (DMEM, 10% FBS, G418 500 μg/ml, penicillin/streptomycin) at 2× final concentrations in 5 fold dilutions, usually from 2×100 μM to 2×0.032 uM, in triplicate, for 4 hours at 37° C. The cells are then infected with 100 ul NL43 wild type or mutant virus, at 5 ng to 20 ng of p24 per well, in the presence of 2×20 ug/ml of DEAE-Dextran, for 40-42 hours. Non infected and infected no drug controls are always present in 12plicate on each plate. An AZT control is tested in parallel for each experiment. After infection, the beta-gal is quantitated in the cell lysate using the Galacto-Star kit from Applied Biosystems and the luminescence measured using a Victor apparatus from Perkin-Elmer. The EC50 (Effective Concentration) is calculated using a Microsoft® Excel® spreadsheet that calculates the concentration necessary to inhibit the 50% of the infection. The assay is performed in at least 2 independent experiments.

[2] = test system: HCV replicon RNA in Huh 7 cells (clone A cells); test: HCV replicon assay, clone A cells (replicon RNA by RT-PCR); assay type: cell-based
Description: (§1) HCV replicon RNA-containing Huh 7 cells (clone A cells; Apath, LLC, St. Louis, Mo.) were kept at exponential growth in Dulbecco's modified Eagle's medium (high glucose) containing 10% fetal bovine serum, 4 mM L-glutamine and 1 mM sodium pyruvate, 1× nonessential amino acids, and G418 (1,000iug/m1). Antiviral assays were performed in the same medium without G418. Cells were seeded in a 96-well plate at 1,500 cells per well, and test compounds were added immediately after seeding. Incubation time 4 days. At the end of the incubation step, total cellular RNA was isolated (RNeasy 96 kit; Qiagen). Replicon RNA and an internal control (TaqMan rRNA control reagents; Applied Biosystems) were amplified in a single-step multiplex RT-PCR protocol as recommended by the manufacturer. The HCV primers and probe were designed with Primer Express software (Applied Biosystems) and covered highly conserved 5′-untranslated region (UTR) sequences (sense primer: • 5′-AGCCATGGCGTTAGTA(T)GAGTGT-3′ (SEQ ID NO:4); antisense primer: • 5′-TTCCGCAGACCACTATGG-3′ (SEQ ID NO:5); and probe: • 5′-FAM-[…]-TAMRA-3′ (SEQ ID NO:6)).
(§2) To express the antiviral effectiveness of a compound, the threshold RT-PCR cycle of the test compound was subtracted from the average threshold RT-PCR cycle of the no-drug control (ΔCtHCV). […]

[3] = MTS cytotoxicity assay, HepG2; assay type: cell-based; conditions: human, HepG2 (liver) cells
Description: (§3) Human cells lines Huh 7 and HepG2 (liver), BxPC3 (pancreatic) and CEM (lymphoid) are used for the MTS assays in 96 wells plates. Drugs are freshly diluted in media at 2×100 μM, 50 μM, 25 μM, 10 μM, 5 μM, 1 μM and 50 μl is dispensed in triplicate in the plates. The wells at the periphery of the plate contain 100 ul of media only and will be the blank controls. A replicate control with no drug is always performed in each plate. 50 μl of cells are added to the plate, at 2000 cells per well for Huh 7, HepG2 and PxPC3, and 5000 cells per well for CEM cells. No cells are added at the periphery of the plate. The media used for Huh 7, HepG2 and BxPC3 cells is DMEM with 10% FBS, and Penicillin/streptomycin, and RPMI with 10% FBS, and Penicillin/streptomycin for CEM cells. After 8 days of incubation at 37° C., 20 μl of MTS dye from the CellTiter 96 Aqueous One Solution Cell Proliferation Assay kit from Promega is added to each well and the plate incubated for 2 h at 37° C. The absorbance is then read at 490 nm using the microplate reader E1800 from Biotek. The signal is calculated by subtracting the absorbance measured in the blank controls. The CC50 (Cytotoxic Concentration) value is then determined by comparing the signal obtained with the no-drug cell control with the treated cells and calculating the concentration of drug necessary to inhibit 50% of the signal in the wells treated with drugs.

[4] = test system: rRNA of Huh 7 clone A cells; test: HCV replicon assay, rRNA internal control (cytotoxicity, ΔCt rRNA); assay type: cell-based, human
Description: as §1, §2

Cytotoxicity in PBMC = assay type: cell-based
[5] = Toxicity, luciferase assay in P4 CCR5-luc cells; assay type: cell-based; conditions: human, read-out: Cytotoxicity CC50, P4 Cells
Description: P4 CCR5-luc cells are plated at 10,000 cells per well (100 ul) in 96 well Opaque Assay plates and incubated overnight at 37° C. The next day, the media is aspirated from the plates and replaced by 200 ul of compound freshly diluted into media in 5 fold dilutions from 100 μM to 0.0062 μM. After 4 days of incubation at 37° C., the luciferase activity is measured in the cell lysate using the Bright Glow kit from Promega and the luminescence measured using a Victor apparatus from Perkin-Elmer.

[6] = test system: HIV (NL43 virus) in P4CCR5luc cells; test: HIV screen: primary screening at 50 μM in P4CCR5luc cells (beta-gal readout); assay type: cell-based; conditions: Human immunodeficiency virus 1, NL43, P4 cells
Description: HIV screen: Primary Screening of PSI compounds are tested for antiviral HIV activity at 50 μM. The cells used are P4CCR5luc cells; they are human HIV indicator cells, which are derived from Hela cells, express CD4, CXCR4, CCR5, luciferase, and a beta-gal gene under the control of HIV-1 LTR. P4CCR5 luc cells are cultivated in DMEM, 10% FBS, Penicillin, Streptomycin, and G418 at 500 μg/ml. 100 μl of P4 CCR5-luc cells are plated at 10,000 cells per well in 96 well Opaque Assay plates and incubated overnight at 37° C. The next day, the media is aspirated from the plates and replaced by 100 μl of compound freshly diluted into media at 2×50 uM, in triplicate, for 4 hours at 37° C. The cells are then infected with 100 ul NL43 virus at 5 ng of p24 per well, in the presence of 2×20 ug/ml of DEAE-Dextran for 40-42 hours. Non infected, infected no drug and AZT controls are always present in triplicate on each plate. After infection the beta-gal is quantitated using the Galacto-Star kit from Applied Biosystems using the manufacturer instructions and the luminescence measured using a Victor apparatus from Perkin-Elmer. Results are represented as percentage inhibition compare to untreated cells. The assays are performed in 2 to 3 independent experiments.

[7] = MTS cytotoxicity assay, Huh 7; assay type: cell-based; conditions: human, Huh 7 (liver) cells
Description: as §3

[8] = MTS cytotoxicity assay, CEM; assay type: cell-based; conditions: human, CEM (lymphoid) cells
Description: as §3

[9] = MTS cytotoxicity assay, BxPC3; assay type: cell-based; conditions: human, BxPC3 (pancreatic) cells
Description: as §3

[10] = test system: HBV in HepG2-AD38 cell line; test: HBV AD38 assay (HBV DNA in supernatant by real time PCR); assay type: cell-based; conditions: Hepatitis B virus; read-out: HBV Inhibition EC90
Description: Biological Assays HBV AD38 Assay
The materials required for the assay comprise the following:
The HepG2-AD38 cell line.
The culture medium for HepG2-AD38 comprises DMEM-F/12, 10% fetal bovine serum, 100 IU/ml/100 ug/ml of Penicillin/streptomycin, 50 μg/ml kanamycin, 0.3 μg/ml tetracycline, and 200 μg/ml G418.
The assay medium for HepG2-AD38 comprises DMEM-F/12, 10% fetal bovine serum, 1001 U/ml/100 μg/ml of penicillin/streptomycin, 50 μg/ml kanamycin, and 200 μg/ml G418 Further materials comprise Phosphate buffered saline (PBS), Biocoated 96 well plates, DNeasy 96 tissue kit (Qiagen), QIAvac 96 vacuum manifold, Micro amp optical 96 well reaction plates (Applied Biosystems), Micro amp optical caps (Applied Biosystems), Tagman Universal PCR Master Mix (Applied Biosystems), and a 7700 Sequence detector (Applied Biosystems),
The primers and probes for HBV DNA comprise the 1125 nM forward primer (GGACCCCTGCTCGTGTTACA) (SEQ ID NO:1), the 1125 nM reverse primer (GAGAGAAGTCCACCACGAGTCTAGA) (SEQ ID NO:2), and the 250 nM probe (FAM-TGTTGACAAGAATCCTCACAATACCAC) (SEQ ID NO:3).
Seed 5×10^4 cells/well in 200 μl of culture medium in a 96 well biocoated plate and incubate the plate at 37° C. with 5% CO2. […]

## C[C@@H]1[C@H](n2ccc(N)nc2=O)O[C@@](CO)(N=[N+]=[N-])[C@H]1O
HCV S282T cells
  EC90: 73.1 µM
[1]
  EC50: 0.18 µM
[2]; 50 μM, clone A cells, HCV RNA
  Screen HCV Clone A Cells −log10 at 50 μM (HCV): −1.4 log10
[2]; Hepatitis C virus, Huh-7, read-out: HCV Inhibition Clone A cells EC90
  EC90: 7.85 µM
[3]
  CC50 at 8 days: 300 µM
[4]
  Screen HCV Clone A Cells −log10 at 50 μM (Rbz): −0.59 log10
Cytotoxicity in PBMC
  CC50: > 100 µM
[5]
  CC50 at 4 days: > 100 µM
[6]
  inhibition at 50 µM: 100%
[7]
  CC50 at 8 days: > 100 µM
[8]
  CC50 at 8 days: 400 µM
[9]
  CC50 at 8 days: 400 µM
[10]
  EC90: 1.62 µM
